Values of other authors, collected in the CATMoS acute toxicity set (Mansouri et al. 2021).
“And” between values parts separate entries of the source, which are not always exact repeats. Equal values may be shown once. Where a SMILES comes first, the peptide text is derived from it. Bridges are numbered along the chain shown (N, C = ends). [ ]: non-standard residue; d: D form. The star is where a group is joined. X1 = CC[C@H](C)CCCCC(=O)*; Dab = NCC[C@H](N)C(=O)O

assay: rat acute oral toxicity; details: in vivo

SMILES | LD50
O=[N+]([O-])c1ccc(O)cc1 | 320 mg/kg
c1ccc(C2CCCCC2)c(OCCC2=NCCN2)c1 | 9.2 mg/kg
OC(Cn1cncn1)(Cn1cncn1)c1ccc(F)cc1F | 1270 mg/kg
C1CCC2OCCOCCOC3CCCCC3OCCOCCOC2C1 (centres undefined) | 176 mg/kg
ClC1=C(Cl)C2(Cl)C3C(Br)C=CC3C1(Cl)C2(Cl)Cl (centres undefined) | 1040 mg/kg
COP(=O)(OC)Oc1ccc(S(C)(=O)=O)c(C)c1 | 30 mg/kg
CCCCOC(=O)Cc1ccc(N(CCCl)CCCl)cc1 | 20 mg/kg
CN1CCCN(C)C1=O | 1770 mg/kg
CNCCCC12CC(c3ccccc31)c1ccccc12 | 1320 mg/kg
C=CCOc1ccccc1C(=O)NCCO | 1150 mg/kg
CN1CCN(C2=Cc3ccccc3Oc3ccc(Cl)cc32)CC1 | 231 mg/kg
O=C(Nc1nc(-c2ccccc2)cs1)OCC(Cl)(Cl)Cl | 550 mg/kg
OC1CCN(c2ccc(-c3ccc(Cl)cc3Cl)nn2)CC1 | 300 mg/kg
Clc1cc2c(cc1Cl)Oc1c(cc(Cl)c(Cl)c1Cl)O2 | 0.206 mg/kg
Nc1cccc(N(CCO)CCO)c1 | 246 mg/kg
CCCOCCN(C(=O)CCl)c1c(CC)cccc1CC | 2200 mg/kg
CC(C)CCOC(CO)CC(C)C (centres undefined) | 5410 mg/kg
O=C(O)c1ccccc1Nc1cccc(C(F)(F)F)c1 | 249 mg/kg
OCCC(O)Cl (centres undefined) | 110 mg/kg
C[N+]1(C)CCCC1COC(=O)C(O)(c1ccccc1)C1CCCCC1 (centres undefined) | 780 mg/kg
CCOC(=O)Nc1cccc(OC(=O)Nc2ccccc2)c1 | 9600 mg/kg
CCOC(=O)NNc1ccc(N(CC)CC(C)O)nn1 (centres undefined) | 2060 mg/kg
CCCCCCCc1ccccc1O | 2750 mg/kg
CC(C)(C)NC[C@H](O)COc1cccc2c1CCCC2=O | 700 mg/kg
CNC(=O)N(C)c1nnc(C(F)(F)F)s1 | 278 mg/kg
CCOC(C1=NCC(C)(C)CN1)c1ccc(OC)c(F)c1 (centres undefined) | 320 mg/kg
c1cc2c(cc1C1CO1)O2 (centres undefined) | 2830 mg/kg

SMILES | LD50
Cc1ncoc1C#N | 735 mg/kg
O=NN1CCN(N=O)CC1 | 160 mg/kg
OC1CCc2ccccc21 (centres undefined) | 620 mg/kg
COc1ccc(N2CCN(CCCN(C)C)CC2)cc1 | 787 mg/kg
CC(C)(C)c1cc(O)ccc1O | 700 mg/kg
O=NN(CCCl)C(=O)NCCCl | 20 mg/kg
CCO[Si](C)(C)CCl | 1550 mg/kg
O=S(=O)(O)C(F)(F)C(F)(F)C(F)(F)C(F)(F)F | 430 mg/kg
N/C(CNc1ccc(Cl)cc1)=N/O | 450 mg/kg
NCC(O)c1cccc(O)c1 (centres undefined) | 390 mg/kg
Clc1cccc2ccccc12 | 2200 mg/kg and 1540 mg/kg
CC(C)(C)C(=O)CCl | 550 mg/kg
CC1=CC=C(C(C)C)CC1 | 1680 mg/kg
CCC(=O)OC(C)c1ccccc1 (centres undefined) | 5200 mg/kg
CNC(=O)O/N=C(\C)C(C)S(C)(=O)=O (centres undefined) | 458 mg/kg
C=C(C)C(=O)OCCSCCCC | 5300 mg/kg
O=S(=O)(O)c1ccc(N2CCC(c3ccc(Cl)cc3)=N2)cc1 | 5530 mg/kg
CCOP(=S)(OCC)SC1COCCS1 (centres undefined) | 3 mg/kg
CCOC(=O)NCCOc1ccc(Oc2ccccc2)cc1 | 16800 mg/kg
Nc1cc2c(cc1C1CCCCC1)CCC2C(=O)O (centres undefined) | 54 mg/kg
O=[N+]([O-])c1ccc2c(N=Nc3ccc4ccccc4c3O)c(O)cc(S(=O)(=O)O)c2c1 | 17600 mg/kg
C1=Cc2cccc(OCC3CNCCO3)c2C1 (centres undefined) | 502 mg/kg
CCOC(N)=C1Sc2ccccc2C1=O | 4000 mg/kg
Nc1ccccc1SCc1ncon1 | 79.4 mg/kg and 63 mg/kg
CC[C@H](C)CCCCC(=O)N[C@@H](CCN)C(=O)N[C@H](C(=O)N[C@@H](CCN)C(=O)N[C@H]1CCNC(=O)[C@@H]([C@H](C)O)NC(=O)[C@H](CCN)NC(=O)[C@H](CCN)NC(=O)[C@H](CC(C)C)NC(=O)[C@@H](CC(C)C)NC(=O)[C@H](CCN)NC1=O)[C@@H](C)O (X1-[Dab]T[Dab][Dab][Dab][dL]L[Dab][Dab][dT]; lactam 4-C) | 121 mg/kg
Cc1cccc(O)c1 | 242 mg/kg
CCCCCOC(=O)CCC | 12200 mg/kg
